Results on 1 molecule are retold here after US20090286839A1, “PHYTONUTRIENT COMPOSITIONS FROM MUSHROOMS OR FILAMENTOUS FUNGI AND METHODS OF USE” (priority 2006, published 2009).

For the data set, the system named is cortical neurons. The experiment in a line: 2% Low Serum Assay, neuronal viability by MTT method. It counts as cell-based, chicken. Conditions: 8 days; for viability, mean in % (control is 100%) / viability, mean optical density: addition at 1DIV, n=8. How it is done:
Lohman or Hisex Brown chicken one-day-old fertilized eggs were obtained and stored in a lab under appropriate conditions of 12° C. and 80% humidity. At embryonic day 0 eggs were transferred into a breeding incubatore and stored under permanent turning until embryonic day 9 at 37.8° C. and 55% humidity. For isolation of neurons 4 to 6 chicken embryos were used per experiment. Neurons were plated out and nerve cells maintained in a nutrition medium at 37° C., 97% humidity, and 5% CO2.
Test Item (T.I.) and Reference Item (R.I.) were administered at the start of the experiments for 8 days. Neurons were maintained in the same medium without change or addition of media until the end of the experiments. During the whole culture period of 8 days cells stay in an incubator at 37° C., 97% humidity, and 5% CO2.
From T.I.1, L-Ergothioneine a 128 mM solution was prepared in medium and directly added to the cells at the start of the experiments for a total of 8 days. […] The pellet was discarded and only from the supernatant 1.25 μl up to 160 μl/ml medium was administered. R.I.2. the neurotrophic standard NTS is a ready to use injection solution and was applied in concentrations from 1.25 μl up ro 160 μl/ml medium. The stock-solution for R.I.3, Trolox, was made in a concentration of 2 mM in PBS and the appropriate concentrations added to the cells at day 1.
To the isolated nerve cell T.I.1 was added in a dose range of 0.5, 1, 2, 4, 8, 16, 32, 64 mM. The supernatant of R.I.1 and the ready to use injection solution of R.I.2 were applied in the concentration 1.25, 2.5, 5, 10, 20, 40, 80, 160 μl/ml medium. R.I.3 was tested in the concentrations of 1, 2, 4, 8, 16, 31.25, 62.5, 125 μM. Experiments were performed at two different days, whereby on each day two identical microplates were prepared with two to four wells per T.I. or R.I. (n=8). In this 2% cell stress assay substances were administered at start of the experiment (day 1 in vitro) for the whole experimental period that means for eight days in vitro.
Neuronal viability of cultures was determined with the MTT-assay using a plate-reader (570 nm) as described in SOP MET009. The MTT-assay is a sensitive assay measuring the mitochondrial dehydrogenase activity in viable cells only. It is performed according to the method described by Mosmann, J. Immunol. Meth., 1983, 55-63. This assay is based on the reduction of yellow MTT (3-(4,5-dimethylthiazol-2-yl)-2,5,diphenyl tetrazolium bromide), to dark blue formazan crystals by mitochondrial dehydrogenases (succinate dehydrogenase). Since this reaction is catalyzed in living cells only the assay can be used for the quantification of cell viability.
For the determination of cell viability MTT solution was added to each well in a final concentration of 0.5 mg/ml. After 2 hours the MTT containing medium was aspired. Cells were lysed with 3% SDS, formazan crystals dissolved in isopropanol/HCI. To estimate optical density a plate reader (Anthos HT II) was used at wavelength 570 nm. Neuronal viability is expressed as optical densities (ODs).
(Tetrazolium dyes change colour on reduction, which living cells bring about.)

As to `C[N+](C)(C)[C@@H](Cc1c[nH]c(=S)[nH]1)C(=O)[O-]` [Ergo, L-ergothioneine], the “viability, mean in % (control is 100%)” value runs as follows: (0.5 mM) 98.13%; (1 mM) 104.42%; (2 mM) 105.10%; (4 mM) 110.39%; (8 mM) 119.84%; (16 mM) 189.48%. The “viability, mean in % (control is 100%)” value worked out at 262.66% (32 mM) and 407.45% (64 mM). In addition, the “viability, mean optical density” value is, setting by setting: (0.5 mM) 0.053 OD; (1 mM) 0.057 OD; (2 mM) 0.057 OD; (4 mM) 0.060 OD; (8 mM) 0.065 OD; (16 mM) 0.103 OD. In addition, the “viability, mean optical density” value runs as follows: (32 mM) 0.153 OD; (64 mM) 0.221 OD. The molecule further displayed a neuroprotective concentration range (2% low serum, MTT) of no less than 4 mM. In addition, under “2% low serum, MTT, best concentration tested”, the “maximum neuronal viability (% of untreated control)” value is 407%.
